The term IC50 denotes the point on the concentration scale where inhibition reaches its midpoint. High values mean lower potency, low ones higher potency.

The assay deals with T1, Stearoyl-CoA desaturase (Homo sapiens, UniProt O00767).
T1 sequence (O00767 whole entry): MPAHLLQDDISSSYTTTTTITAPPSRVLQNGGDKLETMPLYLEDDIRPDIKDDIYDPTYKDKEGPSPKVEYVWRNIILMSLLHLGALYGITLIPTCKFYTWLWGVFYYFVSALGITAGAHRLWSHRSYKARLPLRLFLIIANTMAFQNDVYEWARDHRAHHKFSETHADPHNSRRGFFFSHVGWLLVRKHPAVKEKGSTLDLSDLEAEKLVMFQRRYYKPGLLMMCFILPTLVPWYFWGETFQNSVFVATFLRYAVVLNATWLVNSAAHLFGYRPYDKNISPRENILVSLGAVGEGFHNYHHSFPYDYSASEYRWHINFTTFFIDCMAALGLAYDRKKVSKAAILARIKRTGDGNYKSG
Put plainly: Inhibition of human SCD1.
In the case of `O=C(NCc1ccncc1)c1nccnc1NCC(=O)N1CCC(Oc2ccccc2Cl)CC1`, the IC50 is 110 nM. For `NC(=O)c1nccnc1NCC(=O)N1CCC(Oc2ccccc2Cl)CC1`, half-maximal inhibition (IC50) was put at 94 nM. Consider `O=C(NCc1cccnc1)c1nccnc1NCC(=O)N1CCC(Oc2ccccc2Cl)CC1`, for which the IC50 was 99 nM.

Take `CNC(=O)c1cccnc1NCC(=O)N1CCC(Oc2ccccc2C(F)(F)F)CC1`: the IC50 was more than 1000 nM.

Take `CNC(=O)c1nccnc1NCC(=O)N1CCC(Oc2ccccc2Br)CC1`: 58 nM corresponded to half-maximal inhibition (IC50). The figure for `O=C(NCc1ccncc1)c1ncccc1NCC(=O)N1CCC(Oc2ccccc2C(F)(F)F)CC1` is 350 nM; for `NC(=O)c1ncccc1NCC(=O)N1CCC(Oc2ccccc2C(F)(F)F)CC1` it is 90 nM. With `O=C(NCc1ccccn1)c1nccnc1NCC(=O)N1CCC(Oc2ccccc2Cl)CC1` the figure was 110 nM. The figure for `CN(C)C(=O)c1ncccc1NCC(=O)N1CCC(Oc2ccccc2C(F)(F)F)CC1` is more than 10000 nM; for `CC(C)CNC(=O)c1nccnc1NCC(=O)N1CCC(Oc2ccccc2Cl)CC1` it is 260 nM. `O=C(Nc1ccccc1)c1nccnc1NCC(=O)N1CCC(Oc2ccccc2Cl)CC1` came in with an IC50 of 550 nM. The figure for `O=C(NCc1cccnc1)c1ncccc1NCC(=O)N1CCC(Oc2ccccc2C(F)(F)F)CC1` is 430 nM. With `CCNC(=O)c1ncccc1NCC(=O)N1CCC(Oc2ccccc2C(F)(F)F)CC1` the figure was 110 nM; with `CNC(=O)c1nccnc1NCC(=O)N1CCC(Oc2ccccc2)CC1`, 6300 nM. With `N#Cc1nccnc1NCC(=O)N1CCC(Oc2ccccc2Cl)CC1` the figure was 340 nM; with `CNC(=O)c1nccnc1NCC(=O)N1CCC(C(=O)c2ccccc2)CC1`, more than 1000 nM. For `O=C(NCCO)c1ncccc1NCC(=O)N1CCC(Oc2ccccc2C(F)(F)F)CC1`, inhibition was half-maximal at 120 nM (IC50). For `CNC(=O)c1nccnc1NCC(=O)N1CCC(Oc2cc(Cl)ccc2Cl)CC1`, the IC50 stood at 38 nM.

Take `CCNC(=O)c1nccnc1NCC(=O)N1CCC(Oc2ccccc2Cl)CC1`: the IC50 stood at 39 nM. In turn, `CNC(=O)c1nccnc1NCC(=O)N1CCC(Oc2cc(F)cc(F)c2Cl)CC1` showed an IC50 of 35 nM. With `CNC(=O)c1nccnc1NCC(=O)N1CCC(Oc2ccccc2Cl)CC1` the figure was 51 nM; with `O=Cc1nccnc1NCC(=O)N1CCC(Oc2ccccc2Cl)CC1`, 210 nM.

`O=C(NC1CCCC1)c1ncccc1NCC(=O)N1CCC(Oc2ccccc2C(F)(F)F)CC1` registered an IC50 of more than 10000 nM. The figure for `O=C(NCCO)c1nccnc1NCC(=O)N1CCC(Oc2ccccc2Cl)CC1` is 100 nM; for `O=C(NCc1ccccc1)c1cccc(NCC(=O)N2CCC(Oc3ccccc3C(F)(F)F)CC2)n1` it is 7300 nM. The figure for `O=C(NCCc1ccccc1)c1ncccc1NCC(=O)N1CCC(Oc2ccccc2C(F)(F)F)CC1` is 780 nM; for `CNC(=O)c1nccnc1NCC(=O)N1CCC(Oc2cc(F)ccc2Cl)CC1` it is 51 nM; for `COC(=O)c1nccnc1NCC(=O)N1CCC(Oc2ccccc2Cl)CC1` it is 39 nM. For `CCCNC(=O)c1ncccc1NCC(=O)N1CCC(Oc2ccccc2C(F)(F)F)CC1`, the IC50 was 390 nM. The figure for `O=C(NCc1ccccc1)c1ncccc1NCC(=O)N1CCC(Oc2ccccc2Cl)CC1` is 560 nM; for `O=C(NCc1ccccc1)c1nccnc1NCC(=O)N1CCC(Oc2ccccc2Cl)CC1` it is 140 nM; for `O=C(CNc1nccnc1Cl)N1CCC(Oc2ccccc2Cl)CC1` it is 30 nM. `O=C(NCc1ccccc1)c1ccccc1NCC(=O)N1CCC(Oc2ccccc2Cl)CC1` showed an IC50 of 580 nM. The figure for `CNC(=O)c1ncccc1NCC(=O)N1CCC(Oc2ccccc2C(F)(F)F)CC1` is 97 nM.
